Structures can show the parent of a compound that is named as a salt.
Columns and labels:
[1] = test system: Citrobacter freundii 1982; test: MIC in vitro of a 1:4 combination of ceftriaxone with a compound of formula I (Test D); assay type: cell-based; details: for MIC C. freundii 1982 (D): test D; for MIC C. freundii 1982: Table 2
Method: The minimum inhibitory concentration in vitro ([…]) of a 1:4 combination of ceftriaxone with a compound of formula I against Citrobacter freundii 1982 was measured and compiled in Table 2 hereinafter.

[2] = test system: E. coli 1346; test: Antibacterial activity of the products per se, serial dilution method in liquid medium (Test E); assay type: cell-based; details: product per se; for MIC E. coli 1346 (E): test E; for MIC E. coli 1346: Table 3, liquid medium
From the text: The antibacterial activity of the products per se is illustrated on the basis of Table 3 hereinafter, the minimum inhibitory concentration […] in vitro against E. coli 1346 being determined using the serial dilution method in liquid medium: […]

[3] = Table 4, 1:4 combination of ceftriaxone with the compound
[4] = 1:4 combination of ceftriaxone with the compound
[5] = Table 5, particularly preferred products, 1:4 combination with ceftriaxone
[6] = Table 5, particularly preferred products

## NC(=O)CSC1=C(C(=O)O)N2C(=O)[C@@H]3[C@H]2[C@H](C1)CN3C(=O)Nc1ccc(O)cc1 [3(p), (1aS,3aR,6bR)-5-Carbamoylmethylsulphanyl-2-(4-hydroxyphenylcarbamoyl)-1-oxo-5-(pyridin-4-ylsulphanyl)-1a,2,3,3a,4,6b-hexahydro-1H-2,6a-diazacyclobut[cd]indene-6-carboxylic acid sodium salt]
[1]; [3]
  MIC C. freundii 1982 (D): 1 µg/mL
[2]; Table 4
  MIC E. coli 1346 (E): 32 µg/mL

## Cn1nc[n+](C)c1CSC1=C(C(=O)[O-])N2C(=O)[C@@H]3[C@H]2[C@H](C1)CN3C(=O)Nc1ccc(O)cc1 [3(q), (1aS,3aR,6bR)-5-[(1,4-Dimethyl-1H-1,2,4-triazol-5-ylio)methylsulphanyl]-2-(4-hydroxy-phenylcarbamoyl)-1-oxo-1a,2,3,3a,4,6b-hexahydro-1H-2,6a-diazacyclobut[cd]indene-6-carboxylate]
[1]; [3]
  MIC C. freundii 1982 (D): 2 µg/mL
[2]; Table 4
  MIC E. coli 1346 (E): > 32 µg/mL

## CS(=O)(=O)OC1=C(C(=O)O)N2C(=O)[C@@H]3[C@H]2[C@H](C1)CN3C(=O)Nc1ccc(O)cc1 [9(a), (1aS,3aR,6bR)-2-(4-Hydroxy-phenylcarbamoyl)-5-methylsulphonyloxy-1-oxo-1a,2,3,3a,4,6b-hexahydro-1H-2,6a-diazacyclobut[cd]indene-6-carboxylic acid sodium salt]
[1]; [4]
  MIC C. freundii 1982: 0.12 µg/mL
[2]
  MIC E. coli 1346: 32 µg/mL

## CS(=O)(=O)OC1=C(C(=O)O)N2C(=O)[C@@H]3[C@H]2[C@H](C1)CN3C(=O)Nc1ccc(C(N)=O)cc1 [9(b), (1aS,3aR,6bR)-2-(4-Carbamoyl-phenylcarbamoyl)-5-methylsulphonyloxy-1-oxo-1a, 2,3,3a,4,6b-hexahydro-1H-2,6a-diazacyclobut[cd]indene-6-carboxylic acid sodium salt]
[1]; [4]
  MIC C. freundii 1982: 0.25 µg/mL
[2]
  MIC E. coli 1346: 0.5 µg/mL

## CS(=O)(=O)OC1=C(C(=O)O)N2C(=O)[C@@H]3[C@H]2[C@H](C1)CN3C(=O)NCc1cccs1 [9(c), (1aS,3aR,6bR)-5-Methylsulphonyloxy-2-(thien-2-ylmethylcarbamoyl)-1-oxo-1a,2,3,3a,4,6b-hexahydro-1H-2,6a-diazacyclobut[cd]indene-6-carboxylic acid sodium salt]
[1]; [4]
  MIC C. freundii 1982: 1 µg/mL
[2]
  MIC E. coli 1346: 8 µg/mL

## CS(=O)(=O)OC1=C(C(=O)O)N2C(=O)[C@@H]3[C@H]2[C@H](C1)CN3C(=O)NCc1ccc(O)c(O)c1 [9(d), (1aS,3aR,6bR)-2-(3,4-Dihydroxy-benzylcarbamoyl)-5-methylsulphonyloxy-1-oxo-1a,2,3,3a,4,6b-hexahydro-1H-2,6a-diazacyclobut[cd]indene-6-carboxylic acid sodium salt]
[1]; [4]
  MIC C. freundii 1982: 2 µg/mL
[2]
  MIC E. coli 1346: 32 µg/mL

## CS(=O)(=O)OC1=C(C(=O)O)N2C(=O)[C@@H]3[C@H]2[C@H](C1)CN3C(=O)NCc1ccc(S(N)(=O)=O)cc1 [9(h), (1aS,3aR,6bR)-5-Methylsulphonyloxy-1-oxo-2-(4-sulphamoylbenzylcarbamoyl)-1a,2,3,3a,4,6b-hexahydro-1H-2,6a-diazacyclobut[cd]indene-6-carboxylic acid sodium salt]
[1]; [4]
  MIC C. freundii 1982: 0.5 µg/mL
[2]
  MIC E. coli 1346: 32 µg/mL

## Cc1ccc(S(=O)(=O)OC2=C(C(=O)O)N3C(=O)[C@@H]4[C@H]3[C@H](C2)CN4C(=O)Nc2ccc(O)cc2)cc1 [9(i), (1aS,3aR,6bR)-2-(4-Hydroxy-phenylcarbamoyl)-5-(4-methyl-phenylsulphonyloxy)-1-oxo-1a,2,3,3a,4,6b-hexahydro-1H-2,6a-diazacyclobut[cd]indene-6-carboxylic acid sodium salt]
[1]; [4]
  MIC C. freundii 1982: 2 µg/mL
[2]
  MIC E. coli 1346: 16 µg/mL

## Cn1nnnc1SCC(=O)N1C[C@H]2CC(OS(C)(=O)=O)=C(C(=O)O)N3C(=O)[C@@H]1[C@@H]23 [11(b), (1aS,3aR,6bR)-5-Methylsulphonyloxy-2-(1-methyl-1H-tetrazol-5-ylsulphanylacetyl)-1-oxo-1a,2,3,3a,4,6b-hexahydro-1H-2,6a-diazacyclobut[cd]indene-6-carboxylic acid sodium salt]
[1]; [4]
  MIC C. freundii 1982: 0.5 µg/mL
[2]
  MIC E. coli 1346: 16 µg/mL

## O=C(O)CC1=C(C(=O)O)N2C(=O)[C@@H]3[C@H]2[C@H](C1)CN3C(=O)Nc1ccc(O)cc1 [13(a), (1aS,3aR,6bR)-5-carboxymethyl-2-(4-hydroxy-phenycarbamoyl)-1-oxo-1a,2,3,3a,4,6b-hexahydro-1H-2,6a-diazacyclobut[cd]indene-6-carboxylic acid sodium salt]
[1]; [4]
  MIC C. freundii 1982: 1 µg/mL
[2]
  MIC E. coli 1346: 4 µg/mL

## Cn1nnnc1SCC1=C(C(=O)O)N2C(=O)[C@@H]3[C@H]2[C@H](C1)CN3C(=O)Nc1ccc(O)cc1 [18(a), (1aS,3aR,6bR)-2-(4-Hydroxy-phenylcarbamoyl)-5-(1-methyl-1H-tetrazol-5-ylsulphanylmethyl)-1-oxo-1a,2,3,3a,4,6b-hexahydro-1H-2,6a-diazacyclobut[cd]indene-6-carboxylic acid sodium salt]
[1]; [4]
  MIC C. freundii 1982: 0.25 µg/mL
[2]
  MIC E. coli 1346: 32 µg/mL

## Cn1nnnc1SCC1=C(C(=O)O)N2C(=O)[C@@H]3[C@H]2[C@H](C1)CN3C(=O)Nc1ccc(C(N)=O)cc1 [18(b), (1aS,3aR,6bR)-2-(4-Carbamoyl-phenylcarbamoyl)-5-(1-methyl-1H-tetrazol-5-ylsulphanylmethyl)-1-oxo-1a,2,3,3a,4,6b-hexahydro-1H-2,6a-diazacyclobut[cd]indene-6-carboxylic acid sodium salt]
[1]; [4]
  MIC C. freundii 1982: 0.25 µg/mL
[2]
  MIC E. coli 1346: 32 µg/mL

## Cn1nnnc1SCC1=C(C(=O)O)N2C(=O)[C@@H]3[C@H]2[C@H](C1)CN3C(=O)N[C@H]1CCNC1=O [18(c), (1aS,3aR,6bR)-2-[(S)-2-Oxo-pyrrolidin-3-ylcarbamoyl)-5-(1-methyl-1H-tetrazol-5-ylsulphanylmethyl]-1-oxo-1a,2,3,3a,4,6b-hexahydro-1H-2,6a-diazacyclobut[cd]indene-6-carboxylic acid sodium salt]
[1]; [4]
  MIC C. freundii 1982: 0.25 µg/mL
[2]
  MIC E. coli 1346: 32 µg/mL

## Nc1nnc(SCC2=C(C(=O)O)N3C(=O)[C@@H]4[C@H]3[C@H](C2)CN4C(=O)Nc2ccc(O)cc2)s1 [18(d), (1aS,3aR,6bR)-5-(5-Amino-1,3,4-thiadiazol-2-ylsulphanylmethyl)-2-(4-hydroxy-phenylcarbamoyl)-1-oxo-1a,2,3,3a,4,6b-hexahydro-1H-2,6a-diazacyclobut[cd]indene-6-carboxylic acid sodium salt]
[1]; [5]
  MIC C. freundii 1982 (D): ≤ 0.06 µg/mL
[2]; [6]
  MIC E. coli 1346 (E): 32 µg/mL

## NC(=O)c1ccc(NC(=O)N2C[C@H]3CC(CSc4ccncc4)=C(C(=O)O)N4C(=O)[C@@H]2[C@@H]34)cc1 [18(e), (1aS,3aR,6bR)-2-(4-Carbamoyl-phenylcarbamoyl)-1-oxo-5-(pyridin-4-ylsulphanylmethyl)-1a,2,3,3a,4,6b-hexahydro-1H-2,6a-diazacyclobut[cd]indene-6-carboxylic acid]
[1]; [5]
  MIC C. freundii 1982 (D): 0.12 µg/mL
[2]; [6]
  MIC E. coli 1346 (E): > 32 µg/mL

## Cn1nnnc1SCC1=C(C(=O)O)N2C(=O)[C@@H]3[C@H]2[C@H](C1)CN3C(=O)NCCC(=O)OC(C)(C)C [18(f), (1aS,3aR,6bR)-2-(2-t-Butoxycarbonyl-ethylcarbarmoyl)-5-(1-methyl-1H-tetrazol-5-ylsulphanylmethyl)-1-oxo-1a,2,3,3a,4,6b-hexahydro-1H-2,6a-diazacyclobut[cd]indene-6-carboxylic acid sodium salt]
[1]; [3]
  MIC C. freundii 1982 (D): 1 µg/mL
[2]; Table 4
  MIC E. coli 1346 (E): 4 µg/mL

## Cn1nnnc1SCC1=C(C(=O)O)N2C(=O)[C@@H]3[C@H]2[C@H](C1)CN3C(=O)NCc1ccc(O)cc1 [18(h), (1aS,3aR,6bR)-2-(4-Hydroxy-benzylcarbamoyl)-5-(1-methyl-1H-tetrazol-5-ylsulphanylmethyl)-1-oxo-1a,2,3,3a,4,6b-hexahydro-1H-2,6a-diazacyclobut[cd]indene-6-carboxylic acid sodium salt]
[1]; [3]
  MIC C. freundii 1982 (D): 0.5 µg/mL
[2]; Table 4
  MIC E. coli 1346 (E): 16 µg/mL

## O=C(O)C1=C(CSc2ccncc2)C[C@@H]2CN(C(=O)NCc3ccc(O)cc3)[C@@H]3C(=O)N1[C@H]23 [18(i), (1aS,3aR,6bR)-2-(4-Hydroxy-benzylcarbamoyl)-1-oxo-5-(pyridin-4-ylsulphanylmethyl)-1a,2,3,3a,4,6b-hexahydro-1H-2,6a-diazacyclobut[cd]indene-6-carboxylic add sodium salt]
[1]; [3]
  MIC C. freundii 1982 (D): 4 µg/mL
[2]; Table 4
  MIC E. coli 1346 (E): 32 µg/mL

## O=C(O)C1=C(CSc2ccncc2)C[C@@H]2CN(C(=O)Nc3ccc(O)cc3)[C@@H]3C(=O)N1[C@H]23 [18(j), (1aS,3aR,6bR)-2-(4-Hydroxy-phenylcarbamoyl)-1-oxo-5-(pyridin-4-ylsulphanylmethyl)-1a,2,3,3a,4,6b-hexahydro-1H-2,6a-diazacyclobut[cd]indene-6-carboxylic acid sodium salt]
[1]; [3]
  MIC C. freundii 1982 (D): 0.5 µg/mL
[2]; Table 4
  MIC E. coli 1346 (E): > 32 µg/mL

## O=C(O)C1=C(CSc2ccncc2)C[C@@H]2CN(C(=O)C(F)(F)F)[C@@H]3C(=O)N1[C@H]23 [19(g), (1aS,3aR,6bR)-1-Oxo-5-(pyridin-4-ylsulphanylmethyl)-2-trifluoroacetyl-1a,2,3,3a,4,6b-hexahydro-1H-2,6a-diazacyclobut[cd]indene-6-carboxylic acid sodium salt]
[1]; [5]
  MIC C. freundii 1982 (D): 1 µg/mL
[2]; [6]
  MIC E. coli 1346 (E): 1 µg/mL

## Nc1nnc(SCC2=C(C(=O)O)N3C(=O)[C@@H]4[C@H]3[C@H](C2)CN4C(=O)C(F)(F)F)s1 [19(h), (1aS,3aR,6bR)-5-(5-Amino-1,3,4-thiadiazol-2-ylsulphanylmethyl)-1-oxo-2-trifluoroacetyl-1a,2,3,3a,4,6b-hexahydro-1H-2,6a-diaza-cyclobut[cd]indene-6-carboxylic acid sodium salt]
[1]; [3]
  MIC C. freundii 1982 (D): 0.5 µg/mL
[2]; Table 4
  MIC E. coli 1346 (E): 2 µg/mL

— patent US5464617A, “β-lactam compounds” (Hoffmann-La Roche Inc., priority 1994, dated 1995)
